One block for each compound: values may come before it. [7dzG] = 7-deaza-2'-deoxyguanosine (G*)
What was measured:
[1] = system: G-quartet structure of human telomeric DNA sequence; test: G-quartet formation by imino proton NMR; assay type: physicochemical; details: KCl-containing buffer; imino proton resonances 10-12 ppm
Method: The oligodeoxyribonucleotide having the sequence d(GGTTAGGGTTAG), corresponding to the human telomeric DNA sequence, was prepared using standard automated solid phase synthesis techniques employing a ten micromole synthesis on an Applied Biosystems Model 381A automated DNA synthesizer. Solid support and reagents were purchased from Biogenex, Glen Research, or Applied Biosystems, South San Francisco, Calif. The DNA sample was deprotected in concentrated NH4OH at 55° C. overnight, purified by reverse phase HPLC on a C18 column (Dynamax-300A) and then dialyzed extensively against deionized water. NMR samples were prepared by reconstituting lyophilized DNA in 90% H2O/10% D2O containing 1 mM EDTA/50 mM potassium phosphate and either 100 mM KCl or 100 mM NaCl. NMR experiments were carried out on a Bruker AMX 500 MHz spectrophotometer using a 1-1 echo pulse sequence with maximum excitation centered as 12.0 ppm.
After cleavage from the solid support, deprotection and purification, the oligodeoxyribonucleotide is dissolved in 90% H2O/10% D2O containing 100 mM KCl/1 mM EDTA/50 mM potassium phosphate. The imino NMR spectrum of this oligodeoxyribonucleotide is acquired at various temperatures from about 0° C.-80° C. and the presence of the diagnostic G-quartet imino is indicated by the presence of resonances at 10-12 ppm.

[2] = biological target: T1, human telomerase (Homo sapiens, UniProt O14746); test: Cell-free telomerase inhibition, conventional or modified assay not stated; assay type: biochemical
T1 construct: telomerase in S100 extracts of transformed human fetal kidney tumor 293 cells (a processive telomerase); endogenous in cells; host or cells: human cells, (S100 extract)

[3] = biological target: T2, human 293 cell telomerase (Homo sapiens, UniProt O14746); test: Conventional telomerase assay (32P-dGTP as radiolabel substrate); assay type: biochemical; details: 293 cells telomerase; competing dTTP 1-2 mM; inhibitor 0 to 2 mM
T2 construct: with 20 μl of S100 enzyme extract; endogenous in cells; host or cells: 293 cells (transformed human embryonic kidney), S100 extract

[4] = biological target: T3, UA-21 telomerase (Cricetulus griseus, UniProt A0A9J7FFE8); test: Telomerase assay with CHO non-processive telomerase; assay type: biochemical, Chinese hamster
T3 construct: non-processive telomerase activity in the S100 extracts of HeLa-S3, UA-21 and WI38 cell lines; endogenous in cells; host or cells: UA-21 cells (CHO subline), S100 extract
Method: Selected nucleoside triphosphates were tested in one or both of the “conventional” or “modified” telomerase assays described in Methods using the human processive and the CHO non-processive telomerases. Initially, three chain-terminators were selected: 2′,3′-dideoxythymidine triphosphate (ddTTP), 3′-fluoro-2′,3′-dideoxythymidine triphosphate (F-ddTTP), and 3′-azido-2′-, 3′-dideoxythymidine triphosphate (AZ-ddTTP) as prototype agents to investigate whether they could inhibit telomerase activity. The three compounds are dTTP analogs without a 3′-OH group for subsequent chain elongation. They may either incorporate into the telomere sequence and terminate further chain elongation or compete directly with dTTP for the substrate binding site in the telomerase reaction. In either case, telomerase activity is inhibited.
The DNA ladder bands were quantitated using a Molecular Dynamic Personal Densitometer. The concentration of AZ-ddTTP required to inhibit the telomerase activity by 50% of the control is estimated to be 500 and 750 μM against the 293 and UA-21 telomerase, respectively. In contrast, the nucleoside AZT (3′-azidothymidine), at 2 mM, has a small effect on the telomerase activity.

T1 sequence (O14746 whole entry): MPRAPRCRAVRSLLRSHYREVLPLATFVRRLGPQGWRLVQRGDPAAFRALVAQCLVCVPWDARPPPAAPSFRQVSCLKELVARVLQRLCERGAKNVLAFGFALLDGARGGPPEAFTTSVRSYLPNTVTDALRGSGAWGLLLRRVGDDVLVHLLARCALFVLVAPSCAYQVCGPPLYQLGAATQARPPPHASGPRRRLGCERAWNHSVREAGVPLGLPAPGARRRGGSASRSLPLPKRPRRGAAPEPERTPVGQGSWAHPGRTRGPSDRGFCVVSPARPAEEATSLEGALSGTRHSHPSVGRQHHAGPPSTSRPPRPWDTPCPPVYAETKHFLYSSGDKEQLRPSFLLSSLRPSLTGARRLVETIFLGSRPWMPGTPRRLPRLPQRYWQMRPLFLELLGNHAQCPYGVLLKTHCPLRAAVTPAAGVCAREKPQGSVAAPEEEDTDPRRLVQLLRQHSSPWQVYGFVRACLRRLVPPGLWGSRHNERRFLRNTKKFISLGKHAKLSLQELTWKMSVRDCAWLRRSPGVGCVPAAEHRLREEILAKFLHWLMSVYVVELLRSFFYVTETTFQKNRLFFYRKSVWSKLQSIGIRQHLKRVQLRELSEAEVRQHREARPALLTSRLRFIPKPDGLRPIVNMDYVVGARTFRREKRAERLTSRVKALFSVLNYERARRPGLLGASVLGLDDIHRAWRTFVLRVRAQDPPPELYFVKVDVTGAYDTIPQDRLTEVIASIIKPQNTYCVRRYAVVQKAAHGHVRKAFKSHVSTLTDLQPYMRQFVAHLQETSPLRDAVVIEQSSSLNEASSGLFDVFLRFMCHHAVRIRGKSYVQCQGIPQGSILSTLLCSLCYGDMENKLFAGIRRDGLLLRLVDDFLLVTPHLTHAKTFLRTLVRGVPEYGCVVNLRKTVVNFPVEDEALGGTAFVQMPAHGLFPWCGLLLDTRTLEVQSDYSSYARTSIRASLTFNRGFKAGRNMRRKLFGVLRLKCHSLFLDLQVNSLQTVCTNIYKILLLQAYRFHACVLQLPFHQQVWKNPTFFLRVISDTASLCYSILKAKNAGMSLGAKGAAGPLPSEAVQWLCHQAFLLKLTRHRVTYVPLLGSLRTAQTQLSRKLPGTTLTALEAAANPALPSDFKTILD
T1 sequence (O60832 whole entry partner): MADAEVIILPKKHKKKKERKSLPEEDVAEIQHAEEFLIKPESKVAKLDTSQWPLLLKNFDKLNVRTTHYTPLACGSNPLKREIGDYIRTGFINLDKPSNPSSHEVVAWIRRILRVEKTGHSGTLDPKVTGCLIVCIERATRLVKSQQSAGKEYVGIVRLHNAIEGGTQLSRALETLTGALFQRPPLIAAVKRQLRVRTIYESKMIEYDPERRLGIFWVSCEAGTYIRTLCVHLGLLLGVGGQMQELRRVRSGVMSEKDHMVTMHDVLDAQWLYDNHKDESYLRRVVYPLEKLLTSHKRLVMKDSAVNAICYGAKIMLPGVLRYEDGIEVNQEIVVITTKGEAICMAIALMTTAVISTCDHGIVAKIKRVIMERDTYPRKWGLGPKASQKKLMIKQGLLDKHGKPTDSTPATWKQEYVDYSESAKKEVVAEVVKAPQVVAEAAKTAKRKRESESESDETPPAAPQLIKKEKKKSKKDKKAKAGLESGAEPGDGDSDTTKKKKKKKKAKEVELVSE
T1 sequence (Q9NPE3 whole entry partner): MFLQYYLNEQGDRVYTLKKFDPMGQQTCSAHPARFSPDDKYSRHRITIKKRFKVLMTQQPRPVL
T1 sequence (Q9NX24 whole entry partner): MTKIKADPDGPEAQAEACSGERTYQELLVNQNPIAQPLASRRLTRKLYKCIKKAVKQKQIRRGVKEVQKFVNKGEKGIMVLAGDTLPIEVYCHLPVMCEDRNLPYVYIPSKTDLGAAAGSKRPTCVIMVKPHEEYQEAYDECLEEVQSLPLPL
T1 sequence (Q9NY12 whole entry partner): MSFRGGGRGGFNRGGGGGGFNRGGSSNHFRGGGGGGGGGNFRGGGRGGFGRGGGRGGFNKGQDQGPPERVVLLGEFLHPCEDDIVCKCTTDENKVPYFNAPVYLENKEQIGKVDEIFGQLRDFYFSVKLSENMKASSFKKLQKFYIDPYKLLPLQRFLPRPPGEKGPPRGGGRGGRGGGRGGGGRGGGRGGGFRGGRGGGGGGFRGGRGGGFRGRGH
T3 sequence (A0A9J7FFE8 1-1129): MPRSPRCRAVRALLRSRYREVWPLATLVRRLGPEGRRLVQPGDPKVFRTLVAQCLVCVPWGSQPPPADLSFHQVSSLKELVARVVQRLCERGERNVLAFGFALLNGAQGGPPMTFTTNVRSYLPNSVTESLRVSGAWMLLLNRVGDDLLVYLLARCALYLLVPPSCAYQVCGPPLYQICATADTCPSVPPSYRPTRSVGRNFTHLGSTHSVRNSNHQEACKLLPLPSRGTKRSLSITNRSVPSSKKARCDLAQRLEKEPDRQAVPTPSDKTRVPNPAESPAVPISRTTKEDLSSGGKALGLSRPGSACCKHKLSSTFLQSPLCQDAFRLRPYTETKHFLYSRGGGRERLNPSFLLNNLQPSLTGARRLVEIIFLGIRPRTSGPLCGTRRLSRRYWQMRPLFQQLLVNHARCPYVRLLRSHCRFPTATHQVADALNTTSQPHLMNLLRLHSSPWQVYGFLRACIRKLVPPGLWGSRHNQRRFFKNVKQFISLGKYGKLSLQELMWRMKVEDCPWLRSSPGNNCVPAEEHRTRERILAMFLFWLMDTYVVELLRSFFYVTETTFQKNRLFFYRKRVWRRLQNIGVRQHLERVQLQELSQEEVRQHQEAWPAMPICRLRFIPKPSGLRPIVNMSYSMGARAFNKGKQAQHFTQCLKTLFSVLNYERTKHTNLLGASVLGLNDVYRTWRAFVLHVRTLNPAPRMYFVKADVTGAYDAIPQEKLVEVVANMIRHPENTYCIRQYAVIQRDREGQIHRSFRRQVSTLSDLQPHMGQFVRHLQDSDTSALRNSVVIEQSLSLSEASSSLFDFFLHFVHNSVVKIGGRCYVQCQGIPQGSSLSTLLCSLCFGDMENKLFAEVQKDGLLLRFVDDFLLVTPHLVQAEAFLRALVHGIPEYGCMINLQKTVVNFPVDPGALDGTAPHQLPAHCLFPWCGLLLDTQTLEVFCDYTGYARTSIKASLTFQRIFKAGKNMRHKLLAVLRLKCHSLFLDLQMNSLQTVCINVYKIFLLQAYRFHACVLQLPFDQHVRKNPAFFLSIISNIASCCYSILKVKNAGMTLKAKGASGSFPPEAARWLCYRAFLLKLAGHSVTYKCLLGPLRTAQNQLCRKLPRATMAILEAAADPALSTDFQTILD
T2 sequence (O14746 whole entry): as the sequence (O14746 whole entry) above
T2 sequence (O60832 whole entry partner): as the sequence (O60832 whole entry partner) above
T2 sequence (Q9NPE3 whole entry partner): as the sequence (Q9NPE3 whole entry partner) above
T2 sequence (Q9NX24 whole entry partner): as the sequence (Q9NX24 whole entry partner) above
T2 sequence (Q9NY12 whole entry partner): as the sequence (Q9NY12 whole entry partner) above

Compound: d(GGTTAGG*GTTAG): oligodeoxyribonucleotide where G* represents the 7-deaza-2′-deoxyguanosine residue (DNA GGTTAGGGTTAG; DNA, [7dzG] at 7, backbone not given here)
- temperature up to which G-quartet structure forms [1]: ≤ 20 °C

- IC50 ([2]; 293 telomerase, estimated from densitometry, read-out: concentration required to inhibit the telomerase activity by 50% of the control): ~500 µM
- IC50 [3]: ~200 µM
- IC50 ([4]; UA-21 telomerase, estimated from densitometry, read-out: concentration required to inhibit the telomerase activity by 50% of the control): ~750 µM
Compound: Cc1cn([C@H]2C[C@H](N=[N+]=[N-])[C@@H](CO[P@](=O)(O)O[P@](=O)(O)OP(=O)(O)O)O2)c(=O)[nH]c1=O [NA010, 3′-Azido-3′-Deoxythymidine-5′-Triphosphate]

- effect against the processive human telomerase ([2]; concentration not given): little effect
- inhibition of the non-processive CHO telomerase ([4]; concentration not given): completely
Compound: Cc1cn([C@H]2C[C@H](F)[C@@H](COP(=O)(O)OP(=O)(O)OP(=O)(O)O)O2)c(=O)[nH]c1=O [NA002, 3′-Fluoro-3′-Deoxythymidine-5′-Triphosphate]

Compound: d(GGTTAGGGTTAG): oligodeoxyribonucleotide corresponding to the human telomeric DNA sequence (DNA, backbone not given here) [reference compound]
- temperature up to which G-quartet structure forms [1]: ≥ 70 °C

From patent US6593306B1, “Methods for modulation and inhibition of telomerase” (Board of Regents, The University of Texas Systems, priority 1995, dated 2003)
